According to patent US20130211059A1, “COMPOSITION SUPPRESSING MATRIX-METALLOPROTEINASE ACTIVITY” (University of Miyazaki, priority 2010, published 2013):

Key:
MMP-9 [1] = assay: PMA-induced MMP-9 activity in cultured macrophages (U937), gelatin zymogram; format: cell-based; details: U937 cells pretreated with substance, then stimulated with 10 nmol/L PMA, FIG. 2 A-C
Protocol: (§1) The human AAA wall was homogenized, the obtained samples were evaluated for GLUT-3 protein expression by Western blot, and MMP-9 activity was determined by zymography. Western blot analysis was conducted by subjecting 10 μg of the extracted protein (quantified) to SDS-polyacrylamide gel electrophoresis for separation, subsequently transferring and immobilizing the resultant onto a membrane to prepare a blot, carrying out a reaction of the blot with an anti-GLUT-3 antibody for 1 hour and then with a secondary antibody, and then detecting signals. Meanwhile, zymogram analysis was conducted by subjecting 5 μg of the extracted protein (quantified) to electrophoresis on a zymogram gel plate to separate the protein. The method employed thereafter was carried out according to the instructions of a kit (Invitrogen). After 24 hours of a reaction at 37° C., zymogram gel was stained overnight with a Coomassie blue solution and then destained, and then enzyme activity was detected.
(§2) In this example, 2-DG, cytochalasin, or phloretin was administered to evaluate the suppression of MMP-9 activity in cultured macrophages or the human AAA wall, using a zymogram used in Example 1.
In the meantime, U937 cells were pretreated with a glucose transporter inhibitor (cytochalasin or phloretin), and then stimulated with 10 nmol/L PMA. In addition, U937 cells were pretreated with 2-DG and then stimulated with 10 nmol/L PMA. Furthermore, 2-DG was administered to the ex vivo culture of human AAA wall.
In panels A to D, “MMP-9 (L)” denotes latent MMP-9 activity and “MMP-9 (A)” denotes active MMP-9 activity. In addition, in panel D, “MMP-2 (L)” denotes latent MMP-2 activity and “MMP-2 (A)” denotes active MMP-2 activity. Moreover, in panel D, “control” denotes an aqueous solvent not containing 2-DG.

MMP-9 [2] = assay: MMP-9 activity in ex vivo culture of human AAA wall, zymogram; format: cell-based; details: FIG. 2 D
Protocol: as §1, §2
In the meantime, U937 cells were pretreated with a glucose transporter inhibitor (cytochalasin or phloretin), and then stimulated with 10 nmol/L PMA. […]

[3] = system: abdominal aorta aneurysm formation; assay: Calcium chloride application-induced mouse aneurysm model; format: in vivo
Protocol: The mouse aneurysm model was induced by peri-aortic application of calcium chloride to 8-week-old male C57BL/6J mice.
2-DG was intraperitoneally administered at 100 mg/kg body weight or 1 g/kg body weight/day to the mouse aneurysm model for 28 days. After 28 days, the abdominal aorta was removed and then the diameter thereof was measured. An abdominal aorta was removed similarly from mice to which saline had been administered instead of 2-DG after application of calcium chloride as a negative control, and a mouse that had been treated in the same manner except for application of sodium chloride instead of calcium chloride as a control, and then the diameter of each thereof was measured.
Panel B is a graph showing the diameter (mm) of the abdominal aorta removed from each group.

[4] = system: abdominal aorta aneurysm formation; assay: Angiotensin II-induced apolipoprotein E knockout mouse aneurysm model; format: in vivo; details: angiotensin II-induced apolipoprotein E knockout mice; 1 g/kg body weight/day intraperitoneally for 28 days; FIG. 4
Protocol: Each angiotensin II-induced apolipoprotein E knockout mouse was produced by subcutaneous administration of a pressor peptide, angiotensin II (1000 ng/kg/min), to a 12-week-old apolipoprotein E-deficient mouse via osmotic pump for 28 days. After osmotic pump implantation, 2-DG was intraperitoneally administered at 1 g/kg body weight/day for 28 days (the number of mice (n)=14). After 28 days of administration, the abdominal aorta was removed and then the aortic diameter was measured. As negative control, the abdominal aorta was similarly removed from mice (the number of mice (n)=14) produced by administration of saline instead of 2-DG, and then the aortic diameter was measured.

[5] = system: MMP-1, CCL-2, TNF-α, MMP-9, CCL-8 and IL-6 gene expression; assay: Expression of atherosclerosis/aneurysm-related genes in cultured macrophages by DNA microarray; format: cell-based; details: U937 cells pretreated, then 10 nmol/L PMA, 24 hours after stimulation, FIG. 5
Protocol: In this example, the effects of 2-DG on gene expressions associated with development of atherosclerosis and/or aneurysm in cultured macrophages were evaluated by DNA microarray (Agilent). The evaluated genes associated with atherosclerosis induction- and/or aneurysm formation were MMP-1 and MMP-9, chemokines (CCL-2 and CCL-8) and inflammatory cytokines (TNF-α and IL-6) (Libby P., Inflammation in atherosclerosis, Nature 2002, 420 (6917): 868-874 and Tung W S, Lee J K, Thompson R W., Simultaneous analysis of 1176 gene products in normal human aorta and abdominal aortic aneurysms using a membrane-based complementary DNA expression array. J Vasc Surg. 2001, 34(1): 143-150). Monocytic cells (U937) were stimulated with 10 nmol/L phorbol ester (PMA) for differentiation to macrophages. Some U937 cells were pretreated with 2-DG and then stimulated with 10 nmol/L PMA. As control cells, monocytic cells (U937) to which neither phorbol ester nor 2-DG had been administered were used. At 24 hours after stimulation, cells were collected, RNA was extracted, cDNA was constructed from RNA, and then the resultant was arrayed. The results of arraying were analyzed by GeneSpring GX10 software, so that the expression levels of the atherosclerosis induction- and/or aneurysm-related genes of each cell sample were evaluated. […]

SIRT1 gene = SIRT1 gene expression in cultured macrophages; format: cell-based; details: U937 cells pretreated with 2 mg/mL, then PMA; 24 hours after stimulation; FIG. 6 C
Protocol: In this example, the effect of 2-DG was evaluated on the expression of SIRT1 gene in cultured macrophages. […] Gene expression was evaluated at the mRNA level in a manner similar to that used in Example 4.
In the meantime, 2-DG (2 mg/mL) was pretreated to the U937 cell culture solution, and stimulated them with PMA. As control cells, monocytic cells (U937) to which neither phorbol ester nor 2-DG had been administered and monocytic cells (U937) to which only phorbol ester had been administered were used. At 24 hours after stimulation, SIRT1 gene expression levels were compared, and the results are shown in panel C of FIG. 6.

Row | Compound | PMA-induced MMP-9 activity (MMP-9 [1]) | MMP-9 activity in ex vivo culture of the human AAA wall (MMP-9 [2]) | expansion of aortic diameter following application of calcium chloride ([3]; C57BL/6J mice, 100 mg/kg or 1 g/kg body weight/day intraperitoneally for 28 days, FIG. 3) | vascular wall structure (tunica media layers, cytoprotective effect) ([3]; calcium chloride mouse aneurysm model, mice treated with 2-DG) | aneurysm formation (aortic diameter) [4] | expression levels of atherosclerosis induction- and/or aneurysm-related genes (MMP-1, CCL-2, TNF-α, MMP-9, CCL-8, IL-6), mRNA [5] | SIRT1 gene expression level (SIRT1 gene)
1 | O=CC[C@@H](O)[C@H](O)[C@H](O)CO [2-DG, 2-deoxyglucose] | decreased | suppressed | suppressed | maintained the vascular wall structure | suppressed | decreased | significantly increased
2 | O=C(CCc1ccc(O)cc1)c1c(O)cc(O)cc1O [phloretin] | decreased |  |  |  |  |  | 
3 | cytochalasin | decreased |  |  |  |  |  | 
